Our source for the TGI and GI50 values is PubChem BioAssay (NCI).

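1) Cells in 96-well plates. 2) Compound, 48 h, 5 concentrations. 3) Linear interpolation between surrounding doses. 4) Unreached endpoint = highest concentration. Abbreviation: GI50, concentration required for 50% inhibition of growth. TGI is the concentration that stops growth completely.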 Bounds are passed on as bounds.

Holding throughout (test): inhibition of tumour cell growth, NCI panel, 48 h
The subject of test [1] is COLO 205 colon.
Test [2] relates to HCT-15 colon.
Test [3] relates to HOP-62 NSCLC.
Test [4] deals with LOX IMVI melanoma.
Test [5] concerns NCI-H226 lung.
Test [6] deals with UACC-62 melanoma.
Test [7] concerns HS 578T breast.
For test [8], the system named is HT29 colon.
The subject of test [9] is NCI/ADR-RES ovarian.
Test [10] concerns MCF7 breast.

Turning to `CC(=O)O[C@H]1C(=O)[C@@]2(C)C([C@H](OC(=O)c3ccccc3)[C@]3(O)C[C@H](OC(=O)[C@H](O)[C@H](NC(=O)c4ccccc4)c4ccc(Cl)cc4)C(C)=C1C3(C)C)C1(OC(C)=O)CO[C@@H]1C[C@@H]2O` (some centres undefined), the TGI in test [1] was 0.00842 µM; in test [2], over 100 µM; in [3] it was 26.5 µM; in [4], 55.9 µM; in [5] it was 0.0497 µM; in test [6], 0.00418 µM. The results for the GI50 in test [2] and in test [3] were 0.0583 µM and 0.0321 µM, respectively.
Consider `O=C(NCCN1C(=O)CN=C(c2ccc(Cl)cc2)c2cc(Cl)ccc21)OCc1ccccc1`, for which the TGI in test [1] worked out at 50.4 µM; in [2] it was 44.6 µM; in [3] it was 38.2 µM; in [7], 40.7 µM; in [8] it was 31.8 µM; in test [4], 33.9 µM. In addition, the TGI in test [5] was found to be 35.5 µM; in test [9] it was 35.7 µM; in [6], 38.7 µM.
Consider `Cc1cc2nc(N3C(=O)/C(=C/c4cccc([N+](=O)[O-])c4)N=C3c3ccccc3)sc2cc1C`, for which the TGI is over 100 µM in test [1]; over 100 µM in [2]; over 100 µM in test [3]; over 100 µM in test [7]; 75.9 µM in test [8]; 55.8 µM in test [4]. The values for the TGI in test [10], in test [9] and in test [6] were 43.9 µM, over 100 µM and over 100 µM, respectively.
Consider `O=C1C=C(N2CCCC2)C=C(N2CCCC2)C1`, for which the TGI in [1], in test [2], in [3], in [8], in test [4] and in [5] was over 100 µM in each case. The TGI in [6] is over 100 µM.
On to `O=S(=O)(c1cc(Cl)ccc1Cl)N1CCN(c2ccc(Cl)c(Cl)c2)CC1`, for which the TGI in [2] was over 100 µM; in [3], 39.6 µM; in test [7], over 100 µM; in test [8] it was over 100 µM; in test [4], over 100 µM; in test [10], over 100 µM. Further, in test [5], the TGI is 54.1 µM.
Turning to `Cc1c2c(c(C)n1-c1ccccc1)C(=O)N(CCSC(=N)N)C2=O`, the TGI in test [1], in test [2], in test [3], in test [7], in test [8] and in test [10] was over 100 µM each time. Besides, the TGI in test [5], in test [9] and in [6] was over 100 µM each time.
As for `O=C(Cc1ccccc1)NN1C(=O)C(Cl)C1c1cccc(O)c1` (centres undefined), the TGI in [1] turned out to be 32.9 µM; in test [2], 42.7 µM; in test [3], 80.6 µM; in [8] it was 31.1 µM; in test [4], 27.9 µM; in [5], 43.4 µM.
For `CCN(CC)CCNC(=O)c1ccc([N+](=O)[O-])cc1OC`, the TGI in [1], in test [2], in test [3], in test [8], in test [4] and in [5] was over 100 µM throughout. Besides, in test [6], the TGI was over 100 µM.
In the case of `Cc1c(NC(=O)C(=O)N=NC(=O)c2ccncc2)c(O)c2ccccc2c1O`, the TGI in test [1] turned out to be 32.3 µM; in test [2], 26.9 µM; in test [3], 40.7 µM; in [8], 44.9 µM; in test [4] it was 19.1 µM; in test [5] it was 29.5 µM. This compound also gave a TGI in [6] of 6.07 µM.
For the compound `Cc1ccc(S(=O)(=O)N2CCCSCCSCCCSCC2)cc1`, the TGI in test [1], in [2], in [3], in test [8], in test [4] and in test [10] was over 100 µM each time. For the same compound, the TGI in test [9] and in test [6] was over 100 µM in each case.
For `N=C(/C=C/c1ccc(-c2cn3cc(/C=C/C(=N)N4CCCC4)ccc3n2)cc1)N1CCCC1`, the TGI in [1], in test [2], in test [3], in [7], in [10] and in test [5] was over 100 µM in each case. The TGI in test [9] and in test [6] was over 100 µM throughout.
On to `CSC(SC)=C1C(=O)NN=C1C`, for which the TGI in [1], in [2], in test [3], in test [7], in [8] and in test [4] was over 100 µM each time. Also, the TGI in test [10], in test [5] and in test [6] was over 100 µM throughout.
On to `CCOc1cc(/C=N\N(C)C)cc(/C=N\N(C)C)c1O`, for which the TGI in [1] is 34.3 µM; in [2], over 100 µM; in [3], over 100 µM; in test [7], over 100 µM; in test [8], over 100 µM; in test [4], 79.5 µM. Besides, the TGI in test [5], in [9] and in test [6] was over 100 µM in each case.
For the compound `COCCOCN(C(=O)C1=CCC2(CC1)OCCO2)c1ccccc1I`, the TGI in test [1], in [2], in [3], in test [8], in test [4] and in [10] was over 50 µM in each case. Besides, the TGI in test [5], in test [9] and in test [6] was over 50 µM in each case.
Take `FC(F)(F)P1C2C=CC(CC2)C1(F)F` (centres undefined): the TGI in test [1], in test [2], in test [3], in test [8], in test [4] and in test [5] was over 100 µM in each case. The compound further came in with a TGI in test [6] of over 100 µM.
As to `O=[N+]([O-])c1ccc(Cl)cc1-n1nc(-c2ccccc2)cc1-c1ccccc1`, the TGI in [1], in test [2], in test [7], in test [8], in [10] and in [5] was over 100 µM throughout. Besides, the TGI in [9] and in test [6] was over 100 µM each time.
Consider `CC1=C2C(=O)O[C@@H](c3ccoc3)[C@]2(C)CCC1=O`, for which the TGI in [1], in [2], in test [3], in test [4], in [10] and in test [5] was over 100 µM throughout. Besides, the TGI in [9] and in test [6] was over 100 µM throughout.
For `O=C(O)c1cccc(S(=O)(=O)NN2C(=O)CSC2c2ccccc2)c1` (centres undefined), the TGI in test [1], in test [2], in test [3], in [7], in [8] and in test [4] was over 100 µM each time. Further, the TGI in test [10], in [5] and in [6] was over 100 µM throughout.
As to `CCOc1ccc(N2C(=O)C3c4[nH]c5ccccc5c4C4CCC(C(C)(C)C)CC4C3C2=O)cc1` (centres undefined), the TGI in [1], in test [2], in test [3], in test [8], in test [5] and in test [6] was over 100 µM each time.
Regarding `CN1CCN(c2nc3ccccc3nc2C(=O)c2ccc(Cl)cc2)CC1`, the TGI in [1], in [2], in test [3], in [7], in [8] and in test [4] was over 100 µM throughout. The TGI in test [10] is over 100 µM; in test [9], over 100 µM; in test [6], 76.2 µM.
Regarding `CSc1c(C(=O)Nc2ccc(C)cc2)c(N)nn1-c1ccccc1`, the TGI in test [1], in test [2], in test [3], in test [7], in test [8] and in test [4] was over 100 µM throughout. Further, the TGI in [10], in [5] and in test [6] was over 100 µM throughout.
Consider `Cc1c(C(=O)CSc2nc3ccc([N+](=O)[O-])cc3[nH]2)c(=O)n(-c2ccccc2)n1C`, for which the TGI in [1], in test [2], in [3], in test [8], in [4] and in test [5] was over 100 µM throughout.
As to `CC12CC3CC/C(=N\O)C(C1)C3(N1CCOCC1)C/C2=N/O` (centres undefined), the TGI in [1], in test [2], in [3], in [8], in test [4] and in [10] was over 100 µM in each case. In addition, the TGI in [5], in test [9] and in test [6] was over 100 µM throughout.
For `COc1ncnc2c1cnn2Cc1cn(COCC(O)CO)nn1` (centres undefined), the TGI in test [1], in test [2], in test [3], in test [8], in test [4] and in test [10] was over 100 µM in each case. Besides, the TGI in test [5], in test [9] and in test [6] was over 100 µM throughout.
`CNNC1=NS(=O)(=O)c2cc(C)c(Cl)cc2S1`: the TGI in test [1], in test [2], in test [3], in test [7], in test [8] and in test [4] was over 10 µM throughout. Also, the TGI in test [5], in test [9] and in [6] was over 10 µM each time.
Consider `CC[C@@H]1CN2CCC1C[C@@H]2C(O)c1ccnc2ccc(OCCN3CCN(CCOc4ccc5nccc(C(O)[C@@H]6C[C@@H]7CCN6C[C@@H]7CC)c5c4)CC3)cc12` (some centres undefined), for which the TGI in [1] came to 33.1 µM; in test [2], 56.2 µM; in test [3], 36.2 µM; in test [7], 46.6 µM; in test [8] it was 30.2 µM; in test [4] it was 38.5 µM. Moreover, the results for the TGI in test [10], in test [9] and in test [6] were 31.8 µM, over 100 µM and 30.5 µM, respectively.
`COc1cc(C2C(Cl)C(=O)N2n2cnc3ccccc3c2=O)cc(OC)c1OC` (centres undefined): the TGI in [1], in test [2], in test [3], in test [8], in test [4] and in test [5] was over 100 µM each time. Also, the TGI in test [6] is over 100 µM.
For `Cc1cc(C)c(S(=O)(=O)N[C@@H](/C=C(\Br)CO)C(C)C)c(C)c1`, the TGI was 31.8 µM in test [1]; over 100 µM in [2]; over 100 µM in test [3]; 54.5 µM in [7]; over 100 µM in test [8]; 36.3 µM in test [4]. Also, the values for the TGI in test [10], in test [9] and in [6] were 59.4 µM, over 100 µM and 28.2 µM, respectively.
Turning to `O=C(O)C(CS)NCc1c2ccccc2[n+]([O-])c2ccccc12` (centres undefined), the TGI in test [1], in test [2], in test [3], in test [8], in [4] and in test [5] was over 100 µM each time. In [6], this compound displayed a TGI of over 100 µM.
On to `Cc1ccc(-c2sc(-c3ccc(C)cc3)c3c2C2CCC3C2)cc1`, for which the TGI in test [1], in test [2], in test [3], in test [7], in test [8] and in test [4] was over 50 µM throughout. Moreover, the TGI in test [5], in test [9] and in test [6] was over 50 µM throughout.
On to `O=C(O)CCC(NC(=O)c1ccc(Nc2nc3ccccc3nc2C(=O)O)cc1)C(=O)O` (centres undefined), for which the TGI in [1], in [3], in [7], in test [8], in [10] and in [9] was over 100 µM in each case. Moreover, the TGI in [6] was over 100 µM.
